Assay results as given in US20220000840A1, “PHARMACEUTICAL COMPOSITION AND PREPARATION METHOD THEREFOR” (priority 2015, published 2022).

Legend:
[1] = Stability of NL-101 intermediate/diluted solution (before lyophilization) at room temperature (25±2°C), HPLC; format: physicochemical; conditions: for Purity: intermediate solution per Example 2 of CN103826630A, room temperature (25 ± 2° C.)
Method: (§1) Northlake Biosciences LLC submitted an application WO2013010286A2 on Sep. 14, 2012, and its Chinese family patent is CN103826630A. Chinese family patent application CN103826630A uses acetic acid to dissolve NL-101 and use cyclodextrin inclusion technology to prepare lyophilized powder for injection to improve the safety of NL-101. However, the prepared NL-101 lyophilized powder for injection, such as Example 2, although claimed to be chemically stable at −20° C., 4° C. and room temperature for at least 2 weeks, in fact, the inventors of the present application have verified that the results are still far from satisfying the clinical application requirements of drugs. Although it can be stable for 2-3 weeks at −20° C. and 4° C., it is only stable for several days at room temperature. […] Especially when placed only 5 days in the condition of high temperature accelerated test at 40° C., more than 15% of NL-101 was degraded. The specific stability test results are shown in Table 1, Table 2, and Table 3 below.
The diluted solutions prepared according to the formulations 1-15, 1-1, 2-1, 3-1 and according to Example 2 of CN103826630A were left to stand for 2 hours at room temperature (25±2° C.) and the stability of each diluted solution was tested by high performance liquid chromatography.
The diluted solutions prepared according to the formulations 16-29 and according to Example 2 of CN103826630A were left to stand for 2 hours at room temperature (25±2° C.) and the stability of each diluted solution was tested by high performance liquid chromatography.
Three batches of diluted solutions were taken and placed at room temperature (25±2° C.) for different periods of time. The stability of each diluted solution was tested by high performance liquid chromatography.

[2] = Solubility and chemical stability of NL-101 drug substance; format: physicochemical
[3] = lyophilized powder for injection of CN103826630A Example 2, at −20° C., 4° C. and room temperature, as claimed in CN103826630A; cited from earlier work
[4] = Accelerated test of NL-101 lyophilized preparation at 40°C, HPLC / HPLC-MS; format: physicochemical; conditions: for Purity: lyophilized preparation per Example 2 of CN103826630A, accelerated test at 40° C.
Method: as §1
The NL-101 lyophilized preparation for injection prepared according to the formulation 4 was taken and subjected to an accelerated test at 40° C., and the stability was tested by high performance liquid chromatography.
The NL-101 lyophilized preparation for injection prepared according to the formulations 16 and 22 were taken and subjected to an accelerated test at 40° C., and the accelerated test samples were test by high performance liquid chromatography in connection with mass spectrometry.
The above three batches of lyophilized powder for injection were taken and subjected to accelerated experiments at 40° C. The contents and total impurities were measured at 0, 1, 3, and 6 months, respectively.

[5] = Stability of NL-101 reconstituted solution (5 mg/mL) at room temperature (25±2°C); format: physicochemical; conditions: CN103826630A Example 2 lyophilized preparation
Excerpt: In the process of investigating the NL-101 lyophilized preparation, the inventors unexpectedly discovered that reconstitution of the NL-101 lyophilized preparation with different solvents has a great influence on the stability of NL-101. For example, the lyophilized preparation prepared in Example 2 of CN103826630A was reconstituted with water for injection and physiological saline, respectively, and the purity of NL-101 in the reconstituted solution was examined at different time points.
Since the NL-101 lyophilized powder for injection prepared in Example 2 of CN103826630A contains sodium ions, it is speculated that the stability of NL-101 is increased by chlorine ions in sodium chloride. In order to confirm this, we conducted a stability investigation by reconstituting the lyophilized preparation prepared in Example 2 of CN103826630A in a potassium chloride solution having the same molar concentration as physiological saline.

[6] = Storage stability of NL-101 lyophilized preparation (room temperature, 4°C, -20°C); format: physicochemical; conditions: for time stable: verified by the inventors; for Purity: lyophilized preparation per Example 2 of CN103826630A, room temperature (25 ± 2° C.)
Method: as §1
According to the accelerated test results at 40° C., it is presumed that under the condition of storage, transportation and sales at room temperature (25±2° C.), it can remain stable for at least 2 years and fully meet the needs of clinical use.

[7] = intravenous injection of prior-art injection (NL-101 dissolved with acetic acid, diluted with water for injection), animal; cited from earlier work

**Q.** Which results are given for `Cn1c(CCCCCCC(=O)NO)nc2cc(N(CCCl)CCCl)ccc21` [NL-101, 7-[5-[bis(chloroethyl)-amino]-1-methylbenzimidazol-2-yl]-N-hydroxyl-heptamide]?
**A.** NL-101 degraded ([1]; intermediate solution before lyophilization per Example 2 of CN103826630A, in the dark at room temperature for 4 hours): more than 15%; Purity ([1]; 0 h): 94.05%; Purity ([1]; 2 h): 88.06%; Purity ([1]; 4 h): 78.22%; solubility ([2]; in acetic acid): easily soluble; stability ([2]; in aqueous solution): unstable; stability ([2]; in case of strong acid, strong alkali, strong oxidant and light): easily degraded; solubility ([2]; in ethanol): very slightly soluble; solubility ([2]; in methanol): slightly soluble; stability ([2]; in methanol and acetic acid solution): relatively stable; solubility ([2]; in water): insoluble; time claimed to be chemically stable [3]: at least 2 weeks; NL-101 degraded ([4]; lyophilized powder for injection of CN103826630A Example 2, 5 days in accelerated test at 40° C.): more than 15%; Purity ([4]; day 0): 90.23%; Purity ([4]; day 5): 72.31%; purity of NL-101 reconstituted with potassium chloride injection ([5]; 0 h): 91.28%; purity of NL-101 reconstituted with sodium chloride injection ([5]; 0 h): 91.88%; purity of NL-101 reconstituted with water for injection ([5]; 0 h): 90.23%; purity of NL-101 reconstituted with potassium chloride injection ([5]; 2 h): 86.25%; purity of NL-101 reconstituted with sodium chloride injection ([5]; 2 h): 87.05%; purity of NL-101 reconstituted with water for injection ([5]; 2 h): 80.06%; purity of NL-101 reconstituted with potassium chloride injection ([5]; 4 h): 81.93%; purity of NL-101 reconstituted with sodium chloride injection ([5]; 4 h): 80.23%; purity of NL-101 reconstituted with water for injection ([5]; 4 h): 71.08%; purity of NL-101 reconstituted with potassium chloride injection ([5]; 6 h): 83.56%; purity of NL-101 reconstituted with sodium chloride injection ([5]; 6 h): 78.33%; purity of NL-101 reconstituted with water for injection ([5]; 6 h): 59.36%; time stable ([6]; lyophilized powder for injection of CN103826630A Example 2, at room temperature): several days; time stable ([6]; lyophilized powder for injection of CN103826630A Example 2, at −20° C. and 4° C.): 2-3 weeks; degradation of NL-101 ([6]; lyophilized powder for injection of CN103826630A Example 2, room temperature for 1 month): degraded severely; Purity ([6]; day 0): 90.23%; Purity ([6]; day 5): 85.16%; Purity ([6]; day 15): 77.31%; Purity ([6]; day 30): 70.55%; mortality rate [7]: high; toxicity [7]: highly toxic; vascular irritation [7]: large
